{"source": "patent US9068977B2", "about": "“Non-linear rotation rates of remotely driven particles and uses thereof” (THE REGENTS OF THE UNIVERSITY OF MICHIGAN, priority 2007, dated 2015)", "key": {"[1]": {"test_system": "E. coli K-12 bacteria", "assay": "Effect of antibiotic on bacterial growth, monitored by nonlinear rotation of magnetic particles", "assay_type": "cell-based", "conditions": "5% w/v Ampicillin antibiotic solution; cluster of 40 μm magnetic particles attached to small colony; Luria Broth (Miller) Growth Media; FIG. 9 bottom curve", "from_the_text": "The top curve is for several particles attached to a small colony of E. coli K-12 bacteria in Luria Broth (Miller) Growth Media. The rotational period increases over time, indicating bacterial grow. […] In certain configurations, especially when particles are at an interface, such as an air-liquid interface, the nonlinear rotation may occur in a plane perpendicular to the plane of the external driving magnetic field. This type of nonlinear rotation occurred in the above exemplary measurement."}, "[2]": {"test_system": "E. coli", "assay": "Growth of bacteria attached to a magnetic microsphere, monitored by nonlinear rotation period", "assay_type": "cell-based", "conditions": "bacteria exposed to isopropyl alcohol (70%) for 15 minutes; control, FIG. 4d circles; growth media alone gave 75% increase over 25 min", "from_the_text": "Rotation rates were observed under fluorescent, reflection, and bright-field microscopy. FIG. 4(a) was obtained by measuring the average rotation rate of a magnetic microsphere (with an attached E. coli) for increasing magnetic driving frequencies. The critical frequency, where the magnetic particle goes from synchronous with driving field to asynchronous (nonlinear), occurs abruptly at 1.27 Hz. Measurements for (b), (c), and (d) were then made in this nonlinear regime. Bacteria attached to magnetic microspheres were optically detected by fluorescence of DsRed fluorescent protein transformed bacteria.\nThe magnetic microspheres with one bacterium attached rotated 33.8 times slower than the blank microspheres. […] There was an incremental 75% increase in rotation period over 25 min."}}, "data": [{"smiles": "CC1(C)S[C@@H]2[C@H](NC(=O)[C@H](N)c3ccccc3)C(=O)N2[C@H]1C(=O)O", "note": "[Ampicillin]", "values": [{"measurement": "normalized rotational period over time (indicator of bacterial growth)", "setting": "[1]", "value": "decreases or stays constant over time"}]}, {"smiles": "CC(C)O", "note": "[isopropyl alcohol]", "values": [{"measurement": "change in normalized rotation period (growth of attached bacteria)", "setting": "[2]", "value": "an increase just within the limits of the error bars"}]}]}
